* marks the point of attachment. Cbz = O=C(OCc1ccccc1)*; CHN2 = [N-]=[N+]=C*
B1: Cystatin C: human cysteine proteinase inhibitor present in extracellular fluids (protein, UniProt P01034 27-146, looked up)
Cystatin-C: SSPGKPPRLVGGPMDASVEEEGVRRALDFAVGEYNKASNDMYHSRALQVVRARKQIVAGVNYFLDVELGRTTCTKTQPNLDNCPFHDQPHLKRKAFCSFQIYAVPWQGTMTLSKSTCQDA

Assays:
[1] = system: Herpes simplex virus-2, strain MS; format: in vivo, SCID mouse; details: SCID mice; for survival rate: HSV-2 at 1000 times LD50 on abraded skin, topical, three times daily for 7 days from 2 hours after inoculation, compound 100 mg/kg, untreated control 20%
[2] = system: HSV; assay: Activity against HSV in vitro: ELISA with rabbit anti-HSV antibody in infected human lung fibroblast cells; format: cell-based, HSV-1 and HSV-2; details: HLF cells, virus absorbed in presence or absence of AAT
[3] = system: CMV; assay: Activity against CMV in vitro: plaque reduction assay in human lung fibroblast cells; format: cell-based; details: HLF cells, plaques counted day 6-10 post-infection
[4] = system: HSV; details: at molar concentration lower than that of acyclovir; cited from earlier work

| Molecule | survival rate [1] | percentage of mice surviving, in words, relative to vehicle control ([1]; HSV-2 at 1000 times LD50) | effect on HSV by ELISA, optical density expressed as percent of control [2] | reduction in number of CMV plaques [3] | inhibitory effect on HSV replication [4] |
| --- | --- | --- | --- | --- | --- |
| Nc1nc2c(ncn2COCCO)c(=O)[nH]1 [acyclovir, reference compound] | about 60% |  |  |  |  |
| AAT: glycoprotein of MW 51,000 with 394 amino acids and 3 oligosaccharide side chains; serine protease inhibitor | about 60% | significantly greater | significant inhibitory effect | significant inhibitory effect |  |
| Cbz-Leu-Val-Gly-CHN2 [reference compound] |  |  |  |  | strong inhibitory effects |
| B1 |  |  |  |  | strong inhibitory effects |

Source: patent publication US20080051330A1, “Inhibitors of serine protease activity, methods and compositions for treatment of herpes viruses” (priority 1999, published 2008)
